Read-outs that look alike come from different tables or passages of the source.
How the values were obtained:
MDA-MB-231 cells = assay: MTT viability assay, MDA-MB-231 cells; type: cell-based
Description: (§1) The anticancer activities of the exemplary compounds listed in Example 1 were tested against human cervix Hela cells, mammary breast cancer MDA-MB-231 cells, human hepatocellular HepG2 cells, human colorectal HCT116 cells, mammary ductal T47D cells, non-cancerous NIH3T3 cells, dog's kidney MDCK cells, and mouse brain bEnd.3 cells, respectively.

NIH3T3 cells = assay: MTT viability assay, non-cancerous NIH3T3 cells; type: cell-based
Description: as §1

HCT116 cells = assay: MTT viability assay, HCT116 cells; type: cell-based, human; details: for IC50: Homo sapiens, HCT-116
Description: as §1

Hela cells = assay: MTT viability assay, Hela cells; type: cell-based, human; details: 48 h incubation, mean, n = 3, read-out: IC50 against Hela cells
Description: as §1

T47D cells = assay: MTT viability assay, T47D cells; type: cell-based; details: for IC50: MTT, n = 3
Description: as §1

MDCK cells = assay: MTT viability assay, MDCK cells; type: cell-based, dog; details: 48 h incubation, mean, n = 3, read-out: IC50 against MDCK cells
Description: as §1

[1] = Homo sapiens, MDA-MB-231, 48 h, MTT, 48 h incubation, mean, n = 3, read-out: IC50 against MDA-MB-231 cells
[2] = Homo sapiens, MDA-MB-231, Table 12b, read-out: IC50 MDA-MB-231
[3] = Mus musculus, NIH3T3, MTT, 48 h incubation, mean, n = 3, read-out: IC50 against NIH3T3 cells
[4] = Mus musculus, NIH3T3, Table 12b, read-out: IC50 NIH3T3
[5] = MTT, 48 h incubation, mean, n = 3, read-out: IC50 against HCT116 cells
[6] = Table 12b, read-out: IC50 HCT116
[7] = Homo sapiens, T47D, 48 h incubation, mean, read-out: IC50 against T47D cells

Row | Compound | IC50 (MDA-MB-231 cells; [1]) [µM] | IC50 (NIH3T3 cells; [3]) [µM] | IC50 (HCT116 cells; [5]) [µM] | other results
1 | C#CCCNC(=O)OCC(C)(C)C1CCC2(CC1)OOC1(CCC(O)CC1)OO2 [Compound alk-L-37, 2-(12-hydroxy-7,8,15,16-tetraoxadispiro[5.2.59.26]hexadecan-3-yl)-2-methylpropyl but-3-yn-1-ylcarbamate] | 24.5 | – | – | –
2 | CCCC[N+](C)(CCCC)CCCNC(=O)OC1CCC2(CC1)OOC1(CCC(C(C)(C)C)CC1)OO2.[I-] (centres unmarked) [Compound 53, N-butyl-N-(3-((((12-(tert-butyl)-7,8,15,16-tetraoxadispiro[5.2.59.26]hexadecan-3-yl)oxy)carbonyl)amino)propyl)-N-methylbutan-1-aminium iodide] | < 4 | 33.7 | 6.7 | IC50 (MDA-MB-231 cells; [2]): 3.7 ± 0.4 µM; selectivity index (IC50 of NIH3T3 divided by IC50 on MDA-MB-231) (MDA-MB-231 cells; Table 12b, value in bracket): (>9.1); IC50 (NIH3T3 cells; [4]): 33.7 ± 3.4 µM; IC50 (HCT116 cells; [6]): 6.7 ± 1.4 µM; selectivity index (IC50 of NIH3T3 divided by IC50 on HCT116) (HCT116 cells; Table 12b, value in bracket): (>5)
3 | CC(C)(C)C1CCC2(CC1)OOC1(CCC(OC(=O)NCCCCO[C@@H]3O[C@H](CO)[C@@H](O)[C@H](O)[C@H]3O)CC1)OO2 (stereo partly drawn) [Compound 37i, 12-(tert-butyl)-7,8,15,16-tetraoxadispiro[5.2.59.26]hexadecan-3-yl(4-(((2R,3R,4S,5S,6R)-3,4,5-trihydroxy-6-(hydroxymethyl)tetrahydro-2H-pyran-2-yl)oxy)butyl)carbamate] | – | – | – | IC50 (MDA-MB-231 cells; MTT, 48 h incubation, mean, n = 3, read-out: IC50 against MDA-MB-231 cells): 24.3 µM; IC50 (Hela cells): 28.5 µM; IC50 (T47D cells; 48 h incubation, mean, read-out: IC50 against T47D cells): 13.2 µM; IC50 (NIH3T3 cells; MTT, 48 h incubation, mean, n = 3, read-out: IC50 against NIH3T3 cells): > 100 µM; IC50 (MDCK cells): > 50 µM
4 | CC(C)(C)C1CCC2(CC1)OOC1(CCC(OC(=O)NCCC[N+](C)(C)Cc3ccccc3)CC1)OO2 (centres unmarked) [Compound 54, N-benzyl-3-((((12-(tert-butyl)-7,8,15,16-tetraoxadispiro[5.2.59.26]hexadecan-3-yl)oxy)carbonyl)amino)-N,N-dimethylpropan-1-aminium iodide] | 14.7 | > 50 | 26.2 | –
5 | CC(C)(C)C1CCC2(CC1)OOC1(CCC(OC(=O)NCCOCCOCCNC(=O)OC3CCC4(CC3)OOC3(CCC(C(C)(C)C)CC3)OO4)CC1)OO2 (centres unmarked) [Compound 37j, bis(12-(tert-butyl)-7,8,15,16-tetraoxadispiro[5.2.59.26]hexadecan-3-yl) ((ethane-1,2-diylbis(oxy))bis(ethane-2,1-diyl))dicarbamate] | 23.9 | > 100 | – | IC50 (Hela cells; Homo sapiens, HeLa): 30.6 µM; IC50 (T47D cells; [7]): 10.6 µM; IC50 (MDCK cells; Canis lupus familiaris, MDCK): > 100 µM
6 | C#CCCN(CCC[P+](c1ccccc1)(c1ccccc1)c1ccccc1)C(=O)OC1CCC2(CC1)OOC1(CCC(C(C)(C)C)CC1)OO2 (centres unmarked) [Compound alk-R-37b, (3-(but-3-yn-1-yl(((12-(tert-butyl)-7,8,15,16-tetraoxadispiro[5.2.59.26]hexadecan-3-yl)oxy)carbonyl)amino)propyl)triphenylphosphonium bromide] | 2.3 | 9.7 | – | –
7 | C#CCCNC(=O)OCC(C)(C)C1CCC2(CC1)OOC1(CCC(OC(=O)NCCC[P+](c3ccccc3)(c3ccccc3)c3ccccc3)CC1)OO2 [Compound alk-L-37b, (3-((((12-(1-((but-3-yn-1-ylcarbamoyl)oxy)-2-methylpropan-2-yl)-7,8,15,16-tetraoxadispiro[5.2.59.26]hexadecan-3-yl)oxy)carbonyl)amino)propyl)triphenylphosphonium bromide] | 2.1 | 12.9 | – | –
8 | OC1CCC2(CC1)OOC1(CCCCC1)OO2 [Compound 59, 7,8,15,16-tetraoxadispiro[5.2.59.26]hexadecan-3-ol] | > 50 | – | – | –
9 | CC(C)(C)C1CCC2(CC1)OOC1(CCC(OC(=O)NCCCN(Cc3ccccc3)Cc3ccccc3)CC1)OO2 (centres unmarked) [Compound 37d, 12-(tert-butyl)-7,8,15,16-tetraoxadispiro[5.2.59.26]hexadecan-3-yl(3-(dibenzylamino)propyl)carbamate] | 31.7 | 30.3 | – | IC50 (Hela cells; Homo sapiens, HeLa): 24.8 µM; IC50 (T47D cells; [7]): 10.4 µM; IC50 (MDCK cells; Canis lupus familiaris, MDCK): > 100 µM
10 | O=C(NCCC[P+](c1ccccc1)(c1ccccc1)c1ccccc1)OC1CCC2(CC1)OOC1(CCCCC1)OO2 [Compound 59b, (3-((((7,8,15,16-tetraoxadispiro[5.2.59.26]hexadecan-3-yl)oxy)carbonyl)amino)propyl)triphenylphosphonium bromide] | 1.9 | – | – | –
11 | CCCC[P+](CCCC)(CCCC)CCCNC(=O)OC1CCC2(CC1)OOC1(CCC(C(C)(C)C)CC1)OO2.[Br-] (centres unmarked) [Compound 56, tributyl(3-((((12-(tert-butyl)-7,8,15,16-tetraoxadispiro[5.2.59.26]hexadecan-3-yl)oxy)carbonyl)amino)propyl)phosphonium bromide] | – | 11.1 | 2.7 | IC50 (MDA-MB-231 cells; [2]): 0.97 ± 0.1 µM; selectivity index (IC50 of NIH3T3 divided by IC50 on MDA-MB-231) (MDA-MB-231 cells; Table 12b, value in bracket): (>11.4); IC50 (NIH3T3 cells; [4]): 11.1 ± 0.6 µM; IC50 (HCT116 cells; [6]): 2.7 ± 0.3 µM; selectivity index (IC50 of NIH3T3 divided by IC50 on HCT116) (HCT116 cells; Table 12b, value in bracket): (>4.1)
12 | CC(C)(C)C1CCC2(CC1)OOC1(CCC(OC(=O)NCCC[N+](Cc3ccccc3)(Cc3ccccc3)Cc3ccccc3)CC1)OO2 (centres unmarked) [Compound 57, N,N,N-tribenzyl-3-((((12-(tert-butyl)-7,8,15,16-tetraoxadispiro[5.2.59.26]hexadecan-3-yl)oxy)carbonyl)amino)propan-1-aminium iodide] | 2.9 | 9.8 | – | –
13 | CC(C)(C)C1CCC2(CC1)OOC1(CCC(OC(=O)N3CC[N+](C)(C)CC3)CC1)OO2 (centres unmarked) [Compound 51, 4-(((12-(tert-butyl)-7,8,15,16-tetraoxadispiro[5.2.59.26]hexadecan-3-yl)oxy)carbonyl)-1,1-dimethylpiperazin-1-ium iodide] | 26.1 | > 25 | > 50 | –
14 | C[n+]1ccc(CNC(=O)OC2CCC3(CC2)OOC2(CCC(C(C)(C)C)CC2)OO3)cc1 (centres unmarked) [Compound 50, 4-(((((12-(tert-butyl)-7,8,15,16-tetraoxadispiro[5.2.59.26]hexadecan-3-yl)oxy)carbonyl)amino)methyl)-1-methylpyridin-1-ium iodide] | 19.2 | 44.9 | > 25 | –
15 | CC(C)(C)C1CCC2(CC1)OOC1(CCC(OC(=O)NCCC[N+](C)(C)C)CC1)OO2 (centres unmarked) [Compound 49, 3-((((12-(tert-butyl)-7,8,15,16-tetraoxadispiro[5.2.59.26]hexadecan-3-yl)oxy)carbonyl)amino)-N,N,N-trimethylpropan-1-aminium iodide] | 31.5 | > 50 | > 50 | –
16 | C#CCCN(CCC[N+](C)(Cc1ccccc1)Cc1ccccc1)C(=O)OC1CCC2(CC1)OOC1(CCC(C(C)(C)C)CC1)OO2.[I-] (centres unmarked) [Compound alk-R-48, N,N-dibenzyl-3-(but-3-yn-1-yl(((12-(tert-butyl)-7,8,15,16-tetraoxadispiro[5.2.59.26]hexadecan-3-yl)oxy)carbonyl)amino)-N-methylpropan-1-aminium iodide] | – | 10.8 | – | IC50 (MDA-MB-231 cells; [2]): 0.8 ± 0.2 µM; selectivity index (IC50 of NIH3T3 divided by IC50 on MDA-MB-231) (MDA-MB-231 cells; Table 12b, value in bracket): (>13); IC50 (NIH3T3 cells; [4]): 10.8 ± 3.7 µM
17 | C#CCCNC(=O)OCC(C)(C)C1CCC2(CC1)OOC1(CCC(OC(=O)NCCC[N+](C)(Cc3ccccc3)Cc3ccccc3)CC1)OO2 [Compound alk-L-48, N,N-dibenzyl-3-((((12-(1-((but-3-yn-1-ylcarbamoyl)oxy)-2-methylpropan-2-yl)-7,8,15,16-tetraoxadispiro[5.2.59.26]hexadecan-3-yl)oxy)carbonyl)amino)-N-methylpro pan-1-aminium iodide] | 8.8 | 18.2 | – | –
18 | C[N+](CCCNC(=O)OC1CCC2(CC1)OOC1(CCCCC1)OO2)(Cc1ccccc1)Cc1ccccc1 [Compound 59a, 3-((((7,8,15,16-tetraoxadispiro[5.2.59.26]hexadecan-3-yl)oxy)carbonyl)amino)-N,N-dibenzyl-N-methylpropan-1-aminium iodide] | 10.4 | – | – | –
19 | CC(=O)OC[C@H]1O[C@@H](OCCCCNC(=O)OC2CCC3(CC2)OOC2(CCC(C(C)(C)C)CC2)OO3)[C@H](OC(C)=O)[C@@H](OC(C)=O)[C@@H]1OC(C)=O (stereo partly drawn) [Compound 37h, (2R,3R,4S,5R,6R)-2-(acetoxymethyl)-6-(4-((((12-(tert-butyl)-7,8,15,16-tetraoxadispiro[5.2.59.26]hexadecan-3-yl)oxy)carbonyl)amino)butoxy)tetrahydro-2H-pyran-3,4,5-triyl triacetate] | – | – | – | IC50 (MDA-MB-231 cells; Homo sapiens, MDA-MB-231, 48 h, Table 13, experimental data, MTT, 48 hrs, n = 3, read-out: IC50 MDA-MB-231): 0.4 ± 0.05 µM; selectivity index (IC50 of NIH3T3 divided by IC50 on MDA-MB-231) (MDA-MB-231 cells; Table 13, value in bracket): (>11); IC50 (T47D cells; Homo sapiens, T47D, Table 13, experimental data, 48 hrs, read-out: IC50 T47D): 0.6 ± 0.1 µM; selectivity index (IC50 of NIH3T3 divided by IC50 on T47D) (T47D cells; Table 13, value in bracket): (>7); IC50 (NIH3T3 cells; Mus musculus, NIH3T3, Table 13, experimental data, MTT, 48 hrs, n = 3, read-out: IC50 NIH3T3): 4.6 ± 1.9 µM; IC50 (HCT116 cells; Table 13, experimental data, MTT, 48 hrs, n = 3, read-out: IC50 HCT116): 0.6 ± 0.3 µM; selectivity index (IC50 of NIH3T3 divided by IC50 on HCT116) (HCT116 cells; Table 13, value in bracket): (>7)

Source: patent publication US20240101584A1, “TARGETED DELIVERY OF 1,2,4,5 TETRAOXANE COMPOUNDS AND THEIR USES” (Westlake University, priority 2021, published 2024)
